{"source": "patent US9345733B1", "about": "“Supplement composition for supporting telomere maintenance and protection and method of use” (CELLHEALTH TECHNOLOGIES LTD., priority 2011, dated 2016)", "origin": "cited, not measured here", "key": {"[1]": {"system": "diseased endothelial cells", "details": "chronic exposure; via activation of hTERT and transient telomere stabilization"}, "TNF-a [2]": {"system": "TNF-a", "details": "hypertensive rats"}, "alveolar macrophages": {"system": "alveolar macrophages", "details": "alveolar macrophages in idiopathic pulmonary fibrosis in vitro"}, "[3]": {"system": "endothelial nitric oxide synthase", "details": "human aortic endothelial cells"}, "[4]": {"system": "endothelial nitric oxide synthase", "details": "HUVEC, at nanomolar concentrations"}, "[5]": {"system": "vascular smooth muscle cells", "details": "stimulated by tumor necrosis factor-alpha"}, "[6]": {"system": "human arterial smooth muscle cells (HASMCs)"}, "[7]": {"system": "endothelial progenitor cells", "details": "in culture"}, "NF-κB and TNF-a": {"system": "NF-κB and TNF-a", "details": "peripheral blood mononuclear cells of asthma patients, in-vitro"}, "[8]": {"system": "endothelial progenitor cells"}, "TNF-a [9]": {"target": "TNF-a (Homo sapiens, UniProt P01375)", "sequence (P01375 77-233 limits assumed, species assumed)": "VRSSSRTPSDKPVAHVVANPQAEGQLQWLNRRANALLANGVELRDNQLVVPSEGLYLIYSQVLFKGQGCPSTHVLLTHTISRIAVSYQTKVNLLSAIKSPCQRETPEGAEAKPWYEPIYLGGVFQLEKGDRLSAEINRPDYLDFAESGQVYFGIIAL"}, "[10]": {"system": "IL-23p19, IFN-y, TNF-a, IL-6, MCP-1", "details": "ileum of treated animals"}, "[11]": {"system": "chronic colonic inflammation", "details": "mice, dietary supplementation; reductions of TNF-a and IL-1β, increase of IL-10"}, "[12]": {"system": "human peripheral blood mononuclear cells", "details": "stimulated human peripheral blood mononuclear cells in vitro"}}, "note": "Read-outs that look alike come from different tables or passages of the source."}
{"smiles": "CC(=O)N[C@@H](CS)C(=O)O", "note": "[N-acetylcysteine]", "values": [{"measurement": "senescence of diseased endothelial cells", "setting": "[1]", "value": "can delay senescence"}, {"measurement": "deleterious effect of TNF-a on calcium transients and contraction", "setting": "adult rat cardiomyocytes", "value": "prevents"}, {"measurement": "progression of cardiac injury", "setting": "TNF-a [2]", "value": "hinders"}, {"measurement": "serum TNF-a level", "setting": "TNF-a [2]", "value": "normalizes"}, {"measurement": "TNF-a, sTNFR, and TGF-beta1 release", "setting": "alveolar macrophages", "value": "inhibits"}]}
{"smiles": "CC(C)=CCC[C@](C)(O[C@@H]1O[C@H](CO[C@@H]2O[C@H](CO)[C@@H](O)[C@H](O)[C@H]2O)[C@@H](O)[C@H](O)[C@H]1O)[C@H]1CC[C@]2(C)[C@@H]1[C@H](O)C[C@@H]1[C@@]3(C)CC[C@H](O[C@@H]4O[C@H](CO)[C@@H](O)[C@H](O)[C@H]4O[C@@H]4O[C@H](CO)[C@@H](O)[C@H](O)[C@H]4O)C(C)(C)[C@@H]3CC[C@]12C", "note": "[ginsenoside Rb1]", "values": [{"measurement": "endothelial nitric oxide synthase-Ser1177 phosphorylation and nitric oxide production", "setting": "[3]", "value": "acutely induces"}]}
{"smiles": "CC(C)=CCC[C@](C)(O[C@@H]1O[C@H](CO)[C@@H](O)[C@H](O)[C@H]1O)[C@H]1CC[C@]2(C)[C@@H]1[C@H](O)C[C@@H]1[C@@]3(C)CC[C@H](O)C(C)(C)[C@@H]3[C@@H](O[C@@H]3O[C@H](CO)[C@@H](O)[C@H](O)[C@H]3O)C[C@]12C", "note": "[ginsenoside Rg1]", "values": [{"measurement": "endothelial nitric oxide synthase phosphorylation via Akt", "setting": "[4]", "value": "induces"}, {"measurement": "proliferation of vascular smooth muscle cells", "setting": "[5]", "value": "inhibits"}, {"measurement": "TNF-a-induced HASMCs proliferation", "setting": "[6]", "value": "inhibits"}]}
{"smiles": "O=c1c(-c2ccc(O)cc2)coc2c([C@@H]3O[C@H](CO)[C@@H](O)[C@H](O)[C@H]3O)c(O)ccc12", "note": "[puerarin, Puerarin]", "values": [{"measurement": "onset of endothelial progenitor cells senescence", "setting": "[7]", "value": "dose dependently prevents"}, {"measurement": "proliferation of endothelial progenitor cells", "setting": "[7]", "value": "increases"}, {"measurement": "pathway of NF-κB and TNF-a", "setting": "NF-κB and TNF-a", "value": "could inhibit"}]}
{"smiles": "Oc1ccc(C=Cc2cc(O)cc(O)c2)cc1", "note": "[resveratrol, Resveratrol]", "values": [{"measurement": "onset of endothelial progenitor cells senescence", "setting": "[8]", "value": "delayed the onset"}, {"measurement": "telomerase", "setting": "[8]; through the PI3K-Akt signalling pathway", "value": "activation of telomerase"}, {"measurement": "TNF-a induced changes of adipokines", "setting": "TNF-a [9]", "value": "inhibits"}, {"measurement": "pro-inflammatory cytokine expression (IL-23p19, IFN-y, TNF-a, IL-6, MCP-1)", "setting": "[10]", "value": "significantly lower"}, {"measurement": "chronic colonic inflammation", "setting": "[11]", "value": "attenuates"}, {"measurement": "homocysteine formation", "setting": "[12]", "value": "suppresses"}]}
